Experimental data published in patent US20130261165A1, “PREVENTION AND TREATMENT OF DISEASES CHARACTERIZED BY MESENCEPHALIC DOPAMINERGIC NEURON CELL DEATH” (THE MCLEAN HOSPITAL CORPORATION, priority 2010, published 2013).
Values joined by “and” are separate entries in the source; they are usually repeats but may differ in a detail not shown here. Equal values may be shown once. Where a name gives a salt, the structure may show the parent alone.

Key:
FoxA2 [1] = test: FoxA2 mRNA expression by qPCR in primary ventral midbrain cultures; conditions: for fold induction at 10 µM: Mus musculus, 24 h, read-out: Fold Increase in FoxA2 Expression
Protocol: (§5) One library consisting of FDA-approved and non-FDA approved drugs (NINDS) was screened for drugs with an ability to up-regulate En-1 and/or FoxA2 expression in neuronal cells. Candidate compounds were screened in a gene expression assay using a qPCR detection methodology in a primary ventral midbrain preparation of E12 mice.
(§6) To determine the extent of upregulation in the compounds of interest after initial screening, primary cultures of ventral midbrain cells of E12 CD1 mice were prepared. The embryonic ventral midbrains were removed and stored in HBSS on ice. The dissection time was less than 30-60 minutes. The ventral midbrain tissue was dissociated by removal of the HBSS and addition of 1 ml of 0.05% trypsin-EDTA for 10 minutes at 37° C. During incubation, the tissue and the trypsin-EDTA solution was mixed by occasional careful swirling of the tube. The reaction was stopped, the trypsin aspirated, and 1 ml of 50% HBSS/FBS was added. […] Candidate compound treatment was stopped by cell lysis. The mRNA was isolated and cDNA was synthesized using the Qiagen Turbocapture™ kit (Qiagen Inc., Valencia, Calif.) using Superscript III® reverse transcriptase (Life Technologies, Carlsbad, Calif.) according to manufacturer's protocol. En-1 and FOXA2 mRNA in the cultured cells was quantified using qPCR. […] Assay fluorescence was determined using a Step-One Plus fluorescence plate reader in 96-well plates at a standard reaction time for ramp speed.
(§7) The fold change in mRNA expression level was calculated according to the following formulas:
Fold change=2^−ΔΔCt wherein [1]
(§8) ΔΔCt=(Cttarget gene−Ct18S)treated−(Cttarget gene−Ct18S)untreated.
(§9) In formula 2, Cttarget gene refers to the Ct value determined for either En-1 or FOXA2 (as appropriate) and Ct18S refers to the Ct value determined for the mRNA encoding the 18S ribosomal subunit, each measured by qPCR.

En-1 [2] = test: En-1 mRNA expression by qPCR in primary ventral midbrain cultures; conditions: for fold induction at 10 µM: Mus musculus, 24 h, read-out: Fold Increase in En-1 Expression
Protocol: as §5, §6, §7
Fold change=2^−ΔΔCt wherein [1]
as §8, §9

En-1 [3] = conditions: adult male C57 mice, 20 mg/kg/day subcutaneous for 12 days, n=8, qPCR vs GAPDH and β-actin, listed as duloxetine HCl, hydrochloride
Protocol: (§1) Adult mice were treated with duloxetine HCl (20 mg/kg/day) by subcutaneous injection for 12 days (n=8). […] Data were obtained by qPCR analysis using GAPDH and β-actin as housekeeping genes followed by ΔΔCt calculation.
(§2) Duloxetine HCl (20 mg/kg/day) or saline vehicle was administrated subcutaneously into adult male C57 mice over a period of 12 days. […] Substantia nigra pars compacta was fresh dissected and snap frozen in RNA preserving solution in liquid nitrogen. […] Changes in mRNA expression due to duloxetine HCl treatment were determined by quantitative PCR using a Step One Plus Instrument and TaqMan® reagents (Applied Biosystems). […] Beta actin and GAPD were used as housekeeping genes and fold regulation was calculated using the delta Ct method.
(§3) ΔΔCt=(Cttarget gene−Cthousekeeping gene)treated−(Cttarget gene−Cthousekeeping gene)untreated
(§4) Untreated refers to combined cDNA from the saline treated animals. cDNA from each saline treated animal was also run against the pooled control cDNA.

FoxA2 [4] = conditions: adult male C57 mice, 20 mg/kg/day subcutaneous for 12 days, n=8, qPCR vs GAPDH and β-actin, listed as duloxetine HCl, hydrochloride
Protocol: as §1, §2, §3, §4

[5] = tested on: FoxA2 positive dopaminergic neurons; conditions: 10 μM pre-treatment 24 hours prior to 6-OHDA (1-50 μM); control = cells not exposed to toxin
Protocol: The embryonic ventral midbrains were removed and stored in HBSS on ice. The dissection time was less than 30-60 minutes. The ventral midbrain tissue was dissociated by removal of the HBSS and the addition of 1 ml of 0.05% trypsin-EDTA for 10 minutes at 37° C. During incubation, the tissue and the trypsin-EDTA solution was mixed by occasional careful swirling of the tube. The reaction was stopped, the trypsin aspirated, and 1 ml of 50% HBSS/FBS was added. […] The tissue was triturated using an autoclaved glass pasteur pipette with narrowed opening and a stripettor. The cell suspension was centrifuged at 1000 rpm for 5 min, the supernatant aspirated, and the cells resuspended in E12 media. Twenty-five thousand cells per well were plated in 96 well PLO/laminin coated black-wall imaging plates (Costar) and incubated for 6 days without candidate compound treatment. […] 6-hydroxydopamine hydrobromide (6-OHDA) (Sigma) was reconstituted in ascorbic acid and PBS and added at concentrations of 1-50 μM to the cultures. […] Cultures were stained for tyrosine hydroxylase, FoxA2 and Hoechst and visualized using alexa fluor secondary antibodies. Cultures were analyzed by high content analysis (using an InCell 2000 instrument). The percentage of FoxA2 positive dopaminergic neurons were documented.

[6] = cited from earlier work
[7] = primary ventral midbrain cells of E12 CD1 mice, 10 μM for 24 hours, qPCR vs 18S

| SMILES | fold induction at 10 µM (FoxA2 [1]) | fold induction at 10 µM (En-1 [2]) | other results |
| --- | --- | --- | --- |
| C[C@H]1C[C@@H]2[C@H]([C@@H](O)C[C@@]3(C)[C@H]2CC[C@]3(O)C(=O)CO)[C@@]2(C)C=CC(=O)C=C12 [Methylprednisolone] | 1.41 | 1.38 |  |
| CCCCNC(=O)NS(=O)(=O)c1ccc(C)cc1 [Tolbutamide] | 35 | 21.6 |  |
| c1ccc(CC2=NCCN2)cc1 [Tolazoline hydrochloride] | 2.67 | 2.51 |  |
| CO[C@@]1(NC(=O)C(C(=O)O)c2ccc(O)cc2)C(=O)N2C(C(=O)O)=C(CSc3nnnn3C)CO[C@@H]21 (stereo partly drawn) [Moxalactam disodium] | 7.31 | 4.34 |  |
| CCCc1cc(=O)[nH]c(=S)[nH]1 [Propylthiouracil] | 1.68 | 1.3 |  |
| CCN1CCCC1CNC(=O)c1cc(S(N)(=O)=O)ccc1OC (stereo not drawn) [Sulpiride] | 1.7 | 1.4 |  |
| Cn1cc[nH]c1=S [Methimazole] | 1.97 | 0.2 |  |
| O=C1CC[C@@]2(O)[C@H]3Cc4ccc(O)c5c4[C@@]2(CCN3CC2CC2)[C@H]1O5 [Naltrexone hydrochloride] | 3.39 | 2.09 |  |
| Cc1cc(=O)[nH]c(=S)[nH]1 [Methylthiouracil] | 2.34 |  |  |
| NC(=O)c1cc([N+](=O)[O-])cc([N+](=O)[O-])c1 [Nitromide] |  |  | Fold Increase in FoxA2 Expression (FoxA2 [1]; [7]): 1.55 Fold; Fold Increase in En-1 Expression (En-1 [2]; [7]): 0.28 Fold |
| CC(CCc1ccccc1)NC(C)C(O)c1ccc(O)cc1 (stereo not drawn) [Nylidrin hydrochloride] | 1.7 |  |  |
| CC(=O)S[C@@H]1CC2=CC(=O)CC[C@]2(C)[C@H]2CC[C@@]3(C)[C@@H](CC[C@@]34CCC(=O)O4)[C@H]12 [Spironolactone] | 1.74 | 1.34 |  |
| CNCC[C@H](Oc1cccc2ccccc12)c1cccs1 [Duloxetine hydrochloride] | 49.5 | 19 | En-1 mRNA expression in substantia nigra, fold increase (En-1 [3]): 1.98 fold and 1.98±0.098 fold; FoxA2 mRNA expression in substantia nigra, fold increase (FoxA2 [4]): 2.19 fold and 2.19±0.23 fold; DA neuron survival as a percentage of control [5]: 107% |
| CC(=O)O[C@]1(C(C)=O)CC[C@H]2[C@@H]3C=C(C)C4=CC(=O)CC[C@]4(C)[C@H]3CC[C@@]21C [Megestrol acetate] | 1.89 | 2.14 |  |
| C#CCN(C)Cc1ccccc1 [Pargyline hydrochloride] | 1.27 | 1.73 |  |
| CCOC(=O)[C@H](CCc1ccccc1)N[C@@H](C)C(=O)N1[C@H](C(=O)O)C[C@H]2CCCC[C@@H]21 [Trandolapril] |  | 17.9 |  |
| NNCCc1ccccc1 [Phenelzine sulfate] | 2.5 |  |  |
| CNCC[C@H](Oc1cccc2ccccc12)c1cccs1 [Duloxetine] |  |  | dosage hydrolyzed to 1-naphthol ([6]; pH 1.0, within one hour): 50%; dosage degraded to 1-naphthol ([6]; pH 2.0, in one hour): 10%; time for 10% degradation ([6]; pH 4.0): up to 63 hours |
| c1ccc2c(c1)CCCC2C1=NCCN1 (stereo not drawn) [Tetrahydrozoline hydrochloride] | 2.06 | 1.06 |  |
| CC1(C)O[C@@H]2C[C@H]3[C@@H]4C[C@H](F)C5=CC(=O)CC[C@]5(C)[C@H]4[C@@H](O)C[C@]3(C)[C@]2(C(=O)CO)O1 [Flurandrenolide] | 1.9 | 1.5 |  |
| C[N+]1(C)[C@@H]2C[C@@H](OC(=O)[C@H](CO)c3ccccc3)C[C@H]1[C@@H]1O[C@@H]12 [Methscopolamine bromide] | 1.9 | 1.9 |  |
| O=C(O)c1ccccc1Nc1cccc(C(F)(F)F)c1 [Flufenamic acid] | 3.4 | 2.6 |  |
| CCC1(c2ccccc2)C(=O)NCNC1=O [Primidone] | 1.43 | 0.86 |  |
| COc1ccc2c(c1OC)C(=O)O[C@@H]2[C@H]1c2c(cc3c(c2OC)OCO3)CCN1C [Noscapine hydrochloride] | 1.45 | 1.83 |  |
| COc1ccccc1OCC(O)COC(N)=O (stereo not drawn) [Methocarbamol] | 2.3 | 1.83 |  |
| CC(C)NCC(O)COc1cccc2[nH]ccc12 (stereo not drawn) [Pindolol] | 44.1 | 9.8 |  |
| Cc1ccccc1C(OCCN(C)C)c1ccccc1 (stereo not drawn) [Orphenadrine citrate] | 1.82 | 1.69 |  |
| c1ccc2c(CC3=NCCN3)cccc2c1 [Naphazoline hydrochloride] | 1.99 | 8.95 |  |
| CC(N)C12CC3CC(CC(C3)C1)C2 (stereo not drawn) [Rimantadine hydrochloride] | 2.7 | 1.3 |  |
| CC(=O)c1ccc(S(=O)(=O)NC(=O)NC2CCCCC2)cc1 [Acetohexamide] | 3 | 2.3 |  |
